In article PMC4516916, “Development of Plate Reader and On-Line Microfluidic Screening to Identify Ligands of the 5-Hydroxytryptamine Binding Protein in Venoms” (Toxins, 2015):
Counter-ions that a name gives are not always drawn.

Columns and labels:
A1B2D1R 5HTBP mutant [1] = target: T1, A1B2D1R 5HTBP mutant (Aplysia californica, UniProt Q8WSF8); assay: Fluorescence enhancement microplate reader assay (DAHBA tracer); format: binding
Procedure: Next, specific and non-specific binding was determined by measuring a tracer saturation curve with and without a displacing ligand. In this experiment, the binding protein concentration was 50 nM while 100 µM granisetron was used as displacing ligand for measurement of the non-specific binding curve. […] The non-specific binding, the total binding curve and the resulting specific binding curve is shown (Figure 2C).
Fourteen 5-HT3R ligands, also binding to the 5HTBP [10], were selected for this experiment. The measured Ki values for both the fluorescence enhancement plate reader assay as well as those measured with the radioligand binding assay are listed (Supplementary Information Table S1).
The buffer used for development of the 5HTBP fluorescence enhancement assay consisted of 1 mM KH2PO4, 3 mM Na2HPO4, […], 20 mM trizma base/HCl at pH 7.5 with addition of 400 μg/mL ELISA BR [21]. The fluorescence enhancement was measured with a Victor3 Microplate reader from Perkin-Elmer. The excitation and emission wavelengths were set to 485 and 520 nm, respectively. Black-bottomed 96-well microplates were purchased from Greiner Bio-One (Alphen aan den Rijn, The Netherlands). The final assay volume was 100 µL per well. The 5HTBP was first mixed with the ligands, and then with the tracer ligand. The assay mixture was incubated for 5 min before the measurement. The pharmacological validation was performed by measurement of IC50 curves of twelve 5-HT3R ligands and comparing the results obtained with the results obtained from a radioligand binding assay (see below). The z’ factors for the determination of assay quality were calculated according to Zhang.

A1B2D1R 5HTBP mutant [2] = target: T1, A1B2D1R 5HTBP mutant; assay: Radioligand binding assay with [3H]-granisetron (SPA)
Procedure: The competitive radioligand-binding assay was performed as described by Kesters et al. 2013 [10]. His-tagged A1B2D1R 5HTBP was diluted in buffer (10 mM HEPES/0.05% Tween) to obtain 50 ng binding protein per well. […] The concentration of the radioligand [3H]-granisetron (Perkin-Elmer, Life Science, Groningen, The Netherlands, specific activity ~85 Ci/mmol) was 1.99 nM. After addition of PVT Copper His-Tag SPA beads (final concentration 2 mg/mL), the final well volume was 100 µL. The plates (white Optiplates, Perkin-Elmer Life Science, Groningen, The Netherlands) were incubated at room temperature under continuous shaking while protected from light for 1.5 h. The SPA beads were then allowed to settle for 3 h in the absence of light before counting in a Wallac 1450 MicroBeta (Perkin-Elmer Life Science, Groningen, The Netherlands). All radioligand binding data were fit by a non-linear, least squares curve analysis procedure using Graphpad Prism (version 5, GraphPad Software).

A1B2D1R 5HTBP = assay: Fluorescence enhancement of anabaseine derivatives with 5HTBP (cuvette fluorometer); format: binding, Aplysia californica; details: fluorescence in presence of 5HTBP divided by fluorescence in absence of 5HTBP; A1B2D1R variant; excitation 488 nm
Procedure: (§1) We first evaluated three potentially suitable tracer ligands. […] Fluorescence enhancement factors are defined as fluorescence in presence of 5HTBP divided by fluorescence in absence of 5HTBP. […] DAHBA was therefore selected as the most suitable tracer ligand.
(§2) The fluorescence enhancement properties of three anabaseine derivatives (Supplementary Information Figure S3) bound to the orthosteric binding pocket of two different 5HTBP variants were measured using 1 cm wide glass cuvettes in a Perkin-Elmer LS50B fluorometer (Groningen, The Netherlands). The excitation spectra, λmax (nm), and ε (L·mol^−^1·cm^−^1) values of the anabaseine derivatives are described by Kool et al.. The emission spectra from 500–595 nm were recorded with 0.5 nm intervals with a fixed 488 nm excitation.

A1B2D1W 5HTBP = assay: as above; format: binding, Aplysia californica; details: fluorescence in presence of 5HTBP divided by fluorescence in absence of 5HTBP; A1B2D1W variant; excitation 488 nm
Procedure: as §1, §2

[3] = Stability of tracer ligand in solution (MS analysis); format: physicochemical; details: deduced by MS analysis
From the text: as §1

[4] = read-out: Ki fluorescence enhancement (A1B2D1R 5HTBP mutant), plate reader assay
[5] = read-out: Ki RLB (A1B2D1R 5HTBP mutant); [3H]-granisetron 1.99 nM
[6] = plate reader assay, read-out: Ki fluorescence enhancement (A1B2D1R 5HTBP mutant)
[7] = [3H]-granisetron 1.99 nM; read-out: Ki RLB (A1B2D1R 5HTBP mutant)

T1 sequence (Q8WSF8 entry or part of it, change not shown): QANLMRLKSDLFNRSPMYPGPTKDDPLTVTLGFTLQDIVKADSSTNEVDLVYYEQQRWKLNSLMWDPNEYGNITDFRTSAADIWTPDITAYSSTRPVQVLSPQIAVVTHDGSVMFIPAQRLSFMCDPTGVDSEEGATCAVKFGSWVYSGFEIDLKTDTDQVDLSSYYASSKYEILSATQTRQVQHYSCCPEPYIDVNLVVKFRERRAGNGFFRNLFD

Compound | Ki (A1B2D1R 5HTBP mutant [1]; [4]) | Ki (A1B2D1R 5HTBP mutant [2]; [5]) | Ki (A1B2D1R 5HTBP mutant [1]; [6]) | Ki (A1B2D1R 5HTBP mutant [2]; [7]) | other results
NCCc1c[nH]c2ccc(F)cc12 [5-fluorotryptamine HCL] | 110 ± 14 µM | 101 ± 50.2 µM | – | – | –
C=CCN1CCc2nc(N)sc2CC1 [B-HT920] | – | – | 3.85 ± 0.76 µM | 0.93 ± 0.24 µM | –
CCN(CC)c1ccc(/C=C2\CCCN=C2c2cccnc2)c(O)c1 [DAHBA, (E)-3-(3-(4-diethylamino-2-hydroxybenzylidene)-3,4,5,6-tetrahydropyridin-2-yl)pyridine] | – | – | – | – | fluorescence enhancement factor (A1B2D1R 5HTBP): 4.7
Cn1cc(C(=O)C(=O)NC2CN3CCC2CC3)c2ccccc21 (stereo not drawn) [RS56812] | – | – | 3.57 ± 0.91 µM | 1.6 ± 0.34 µM | –
NC1CCN(c2cccc(Cl)n2)CC1 [SR57227] | – | – | 85 ± 7.62 µM | 39.7 ± 15 µM | –
CN1CCN(c2nc3ccccc3nc2Cl)CC1 [VUF10166] | – | – | 11.5 ± 3.58 µM | 2.39 ± 0.58 µM | –
CN(C)c1ccc(/C=C2\CCCN=C2c2cccnc2)cc1 [VUF10907, (E)-3-(3-(4-Dimethylaminobenzylidene)-3,4,5,6-tetrahydropyridin-2-yl)pyridine] | – | – | – | – | fluorescence enhancement factor (A1B2D1R 5HTBP): 3.8; fluorescence enhancement factor (A1B2D1W 5HTBP): 2.5
CN1CCc2cc(/C=C3\CCCN=C3c3cccnc3)ccc21 [VUF11234, (E)-1-methyl-5-((2-(pyridin-3-yl)-5,6-dihydropyridin-3(4H)-ylidene)methyl)indoline] | – | – | – | – | fluorescence enhancement factor (A1B2D1R 5HTBP): 6.5; fluorescence enhancement factor (A1B2D1W 5HTBP): 3.7; degradation in solution [3]: notable degradation in solution
CN1C2CCCC1CC(NC(=O)c1nn(C)c3ccccc13)C2 (stereo not drawn) [granisetron, Granisetron] | 0.24 ± 0.14 µM | 0.05 ± 0.01 µM | – | – | –
CN1CCN2c3ncccc3Cc3ccccc3C2C1 (stereo not drawn) [mirtazapine] | 12.8 ± 3.99 µM | 9.29 ± 1.87 µM | – | – | –
O=C1c2cccc3c2[C@H](CCC3)CN1[C@@H]1CN2CCC1CC2 [palonosetron] | 2.2 ± 0.63 µM | 0.51 ± 0.11 µM | – | – | –
c1ccc2nc(N3CCNCC3)ccc2c1 [quipazine] | 73 ± 32.2 µM | 53.8 ± 13.7 µM | – | – | –
CN1[C@@H]2CC[C@H]1C[C@@H](OC(=O)c1c[nH]c3ccccc13)C2 [tropisetron] | 0.04 µM | 0.01 µM | – | – | –
COc1cc(N)c(Cl)cc1C(=O)NC1CN2CCC1CC2 (stereo not drawn) [zacopride] | 4.05 ± 1.14 µM | 1.62 ± 0.57 µM | – | – | –
RS 16566 | – | – | 3 ± 0.02 µM | 0.38 ± 0.09 µM | –
